We go through 4 compounds from patent US20240051971A1, “INTRACELLULAR ATP ENHANCER” (School Juridical Person Higashi-Nippon-Gakuen, priority 2020, published 2024).

SMILES strings stand for the structures. Where two headings read alike, the source gives them in different places.

The nature of series [1]: Test Example 2b, absorbability of solid dispersion containing Compound 14 in rats. In kind it is in vivo, rats (Crl:CD (SD)). The conditions noted are these: rat, single oral, 30 mg/kg as Compound 14, fasted. The procedure: A single dose of 10 mg/kg or 30 mg/kg, as Compound 14, of the solid dispersions of Reference Example 2b and Comparative Reference Example 10b and the sample of Comparative Reference Example 11b suspended in a 1% carboxymethylcellulose aqueous solution was orally administered to fasted male rats (8 weeks old, Crl:CD (SD), Japan Charles River Laboratories). A crystalline drug substance of Compound 14 was used as a control (Comparative Reference Example 12b). A collection time was 0.5, 1, 2, 4, 8, and 24 hours after administration, and about 300 μL of blood was collected at each time point from vena caudalis (n=3). The obtained blood was centrifuged at 1500×g, 4° C. for 15 minutes to obtain a plasma. The concentration of Compound 14 in the plasma was measured by HPLC (Shiseido Company, Limited and Hitachi High-Technologies Corporation). A time to reach the highest concentration in the plasma (Tmax), the highest concentration in the plasma (Cmax) and an area under the plasma concentration-time curve (AUC) were calculated from the change in the concentration in the obtained plasma. Here, values in the table are the mean value±standard deviation of three examples.

Another series concerns eyeball. Put plainly: Example 4, measurement of concentration of various molecules in eyeball. The class given is in vivo, RCS rats. Details: unit not given here. Particulars: Day 19 after 18 days oral administration. The procedure: (§1) Three week old RCS rats (CLEA Japan, Inc., male) were purchased and randomly divided into a control group and a Compound 14 administration group. From 3.5 weeks of age, control and Compound 14 were orally administered daily once a day for 18 days. To the control group, 1% methylcellulose (Metrose (SM-15) manufactured by Shin-Etsu Chemical Co., Ltd.) was administered, and to the Compound 14 administration group, a preparation in which a solid dispersion of Compound 14 described in “Formulation Example 1” described later was suspended in 1% methylcellulose was administered at a dose of 5 mg/100 g body weight (1 mg/100 g body weight as Compound 14) per administration. Because xanthine stones are likely to occur in rodents due to XOR inhibition, Uralyt-U combination powder (manufactured by Nippon Chemiphar Co., Ltd.) was administered to both groups in drinking water at a concentration of 1% (w/v) in order to prevent/reduce xanthine stones. On Day 19 after completion of administration for 18 days, eyeballs of both eyes were collected from both groups, and a tissue image was observed on one eyeball.
Concentrations of various molecules in one eyeball collected in Example 3 were measured. The eyeball stored at −80° C. was freeze-pulverized, a 5% perchloric acid solution in an amount of 2 times (w/w) was added, and the mixture was vortexed. The supernatant obtained by centrifugation at 15000 rpm and 4° C. for 5 minutes was neutralized with a 3 M potassium carbonate solution. The mixture was centrifuged again at 15000 rpm and 4° C. for 5 minutes, and the supernatant was equilibrated with 0.5 M sodium phosphate buffer to prepare an eyeball extraction solution. ATP, ADP, AMP, IMP, inosine, hypoxanthine, xanthine, uric acid, GTP, GDP, and GMP in the solution were measured by HPLC (HPLC: Shimadzu Corporation LC-20AD, Diode array detector: Shimadzu Corporation SPD-M20A), and the energy charge was calculated (Calculation formula: ([ATP]+½ [ADP])/([ATP]+[ADP]+[AMP])).

Another series relates to RCS rats. Put plainly: Example 3, suppressive action on retinal degeneration. The class given is in vivo. The conditions noted are these: oral once a day for 18 days, 1 mg/100 g body weight as Compound 14 (solid dispersion of Formulation Example 1); versus control, p<0.05, n=4. The procedure:
as §1

A further series concerns serum. Put plainly: Example 5, concentration of hypoxanthine and inosine in serum. In kind it is in vivo, RCS rats. Particulars: Day 11 after 10 days daily oral administration. The procedure:
In the same manner as in Example 3, to RCS rats, control or Compound 14 was orally administered daily for 10 days, and Uralyt-U combination powder (manufactured by Nippon Chemiphar Co., Ltd.) was administered in drinking water. On Day 11 after completion of administration for 10 days, blood was collected from both groups to prepare serum.

Series [2] relates to serum uric acid level. Put plainly: Reference Example 14, action of lowering serum uric acid level in healthy adult males. In kind it is in vivo. The conditions noted are these: for maximum rate of decrease in a blood uric acid level: solid dispersion capsules of Formulation Example 1. The procedure:
For comparative reference, the results are shown in FIG. 9 together with the result of a case described in Non Patent Literature 3 in which febuxostat (40 mg) was used.

The test system of the next series is plasma uric acid level. Put plainly: Reference Example 15, plasma uric acid in oxonic acid-induced hyperuricemic rats, 28-day repeated administration. In kind it is in vivo, oxonic acid-induced hyperuricemic rats (Crl:CD (SD)). Particulars: oral once a day for 28 days, non-fasting; Compound 14 0.3 mg/kg; Days 1, 7, 14, 21, 28. The procedure:
Compound 14 suspended in a 1% aqueous methylcellulose solution was orally administered to oxonic acid-induced hyperuricemic rats at a dose of 0.3 mg/kg once a day for 28 days under non-fasting conditions. As a control, a 1% aqueous methylcellulose solution was used, and as a positive control, febuxostat was used.
As rats, male Crl:CD (SD) rats (produced by Charles River Laboratories Japan, Inc.) were used. The rats were purchased at the age of 6 weeks, and the administration was started at the age of 7 weeks.
Potassium oxonate was prepared by adding and suspending 10 g of potassium oxonate (Sigma-Aldrich Corp., Lot No. 03810 HD) to 200 mL of 1% methyl cellulose (1% MC) with a mixer. […]
The collection time points were set to before administration (1 hour before) and 2 and 6 hours after administration on Days 1, 7, 14, 21, and 28, and blood was collected in an amount of about 300 μL per time point from the tail vein (n=7). […] The concentration of uric acid in the plasma was measured by HPLC (Shiseido Co., Ltd., current OSAKA SODA).
To acquire the predose value and data for grouping, a 1% aqueous methylcellulose solution was orally administered to all rats 5 days before the start of administration, and the uric acid concentration in the plasma was measured according to the above-described method such as subcutaneous administration of potassium oxonate. […]

In series [3] the test system is MOVAS-1 cells having XOR activity. Put plainly: Example 2, ATP enhancing action in presence of uncoupler (CCCP). In kind it is cell-based. The conditions noted are these: 6 μM Compound 14, CCCP 10 μM, 30 minutes; versus control of the CCCP addition group. The procedure: MOVAS-1 cells having XOR activity were used for Examples. All examinations were performed at n=3 for each number of samples. The medium of MOVAS-1 cells in a confluent state (with D-MEM/low glucose/10% FBS/100 uM Oxionate) was divided into a medium for a CCCP addition group and a medium for a CCCP non-addition group, and 6 μM Compound 14 was added to the media. Nothing was added to the control of each group. Thereafter, to the CCCP addition group, CCCP was added so as to have a final concentration of 10 μM. After standing for 30 minutes, deproteinization was performed by PCA, and then ATP, ADP, and AMP concentrations were measured using HPLC.

The nature of series [4]: Distribution of administered Compound 14 in the eyeball. The class given is in vivo. Particulars: Compound 14 administered to the rat.
Series [5] has as its system MOVAS-1 cells having XOR activity. Put plainly: Example 1, ATP enhancing action in hypoxic condition. In kind it is cell-based. Particulars: 1% oxygen, 4 hours. The procedure:
MOVAS-1 cells having XOR activity were used for Examples. All examinations were performed at n=3 for each number of samples. The medium of MOVAS-1 cells in a confluent state (with D-MEM/low glucose/10% FBS/100 μM Oxionate) was divided into a medium for a hypoxanthine addition group and a medium for a hypoxanthine non-addition group, 50 μM hypoxanthine, and 6 μM Compound 14, 10 μM febuxostat, or 100 μM allopurinol were added to the medium of the hypoxanthine addition group, and 6 μM Compound 14, 10 μM febuxostat, or 100 μM allopurinol was added to the medium of the hypoxanthine non-addition group. For the control of each group, only 50 μM hypoxanthine was added to the hypoxanthine addition group, and nothing was added to the hypoxanthine non-addition group. Thereafter, the media were allowed to stand for 4 hours under mixed gas conditions of 1% oxygen, 5% carbon dioxide, and 94% nitrogen. After deproteinization by PCA, ATP, ADP and AMP concentrations were measured using HPLC.

Series [6] has as its system serum uric acid level. Particulars: febuxostat 40 mg, case described in Non Patent Literature 3; first day of the administration (about 15 hours after the administration); cited from earlier work.

Broadly, the Cmax is the peak of the concentration-time curve. On to `N#Cc1cc(-c2nc3c(O)ncnc3s2)ccc1Oc1ccccc1` [Comparative Reference Example 11b, 2-(3-Cyano-4-phenoxyphenyl)-7-hydroxythiazolo[5,4-d]pyrimidine], for which, in series [1], the AUClast came to 15369 ± 7776 ng·h/mL and the Cmax was found to be 1724 ± 65 ng/mL.

Regarding `N#Cc1cc(-c2nc3c(O)ncnc3s2)ccc1Oc1ccccc1` [Compound 14, 2-(3-Cyano-4-phenoxyphenyl)-7-hydroxythiazolo[5,4-d]pyrimidine], the GTP in the series on eyeball (NS p = 0.069 vs control) was 53.157 ± 8.352. For the same compound, the Hypoxanthine in the series with eyeball (NS p = 0.081 vs control) was found to be 8.450 ± 3.244. Besides, in the series with eyeball (NS p = 0.095 vs control), the Xanthine is reported as 1.739 ± 0.590. In the series with eyeball (p = 0. 000 vs control), the GMP came to 2.458 ± 1.898. The IMP in the series with eyeball (p = 0.002 vs control) is 3.640 ± 1.122. Besides, in the series on eyeball (p = 0.004 vs control), the ADP turned out to be 55.134 ± 7.253. In the series with eyeball (p = 0.010 vs control), the AMP stood at 27.828 ± 8.547. The Uric acid in the series with eyeball (p = 0.027 vs control) is on record as 1.344 ± 0.444. Further, the ATP in the series on eyeball (p = 0.033 vs control) is listed as 175.809 ± 25.506. Further, the GDP with eyeball (p = 0.036 vs control) was 8.115 ± 1.245. For the same compound, the Inosine with eyeball (p = 0.047 vs control) is 13.063 ± 4.690. Moreover, the “thinning of the outer nuclear layer and the cone-rod layer in the retinal tissue” value in the series on RCS rats is recorded as “significantly suppressed”. Besides, in the series with serum, the “increase of the concentration of hypoxanthine in the serum versus control” value is listed as “about 7 times” and the “increase of the concentration of inosine in the serum versus control” value is listed as “about 38 times”. The “Hypoxanthine, Serum (n = 4)” value with serum (p = 0.023 vs control) amounted to 92.020 ± 47.670. Also, the “Inosine, Serum (n = 4)” value in the series with serum (p = 0.026 vs control) is 9.950 ± 6.280. Also, in the series with serum uric acid level [2] (40 mg once daily for 7 days, capsules containing micronized Compound 14), the “serum uric acid level over the administration period” value is on record as “gradually decreased over time throughout the administration period”. Also, the “maximum rate of decrease in a blood uric acid level” value (“maximum rate of decrease” for short) in the series with serum uric acid level [2] (80 mg once daily for 7 days, seventh day (about 8 hours after the administration)) is “about 30%”. Moreover, the “maximum rate of decrease” value with serum uric acid level [2] (80 mg once daily, first day of the administration (12 hours after the administration)) is “about 17%”. In addition, the “rate of change of the plasma uric acid level AUC (−1) to 6 with respect to the control group” value in the series on plasma uric acid level is listed as “increased with repeated administration”. Besides, in [3], the total adenylate concentration result is on record as “higher than the total adenylate concentration of the control group of the CCCP addition group”. The “distribution in the eyeball” value in series [4] was “hardly distributed in the eyeball”. Moreover, the “ATP enhancing action (ATP, ADP and AMP concentrations)” value in series [5] (6 μM Compound 14 versus 10 μM febuxostat or 100 μM allopurinol, with or without 50 μM hypoxanthine) was “exhibited effects at doses lower than febuxostat and allopurinol”. For the same compound, the “ATP enhancing action in hypoxic condition, hypoxanthine in combination” value in series [5] (50 μM hypoxanthine, 6 μM Compound 14 versus 10 μM febuxostat) is “significant difference between Compound 14 and febuxostat”.

Broadly, the Tmax is the time at which the peak concentration occurs. As to `N#Cc1cc(-c2nc3c(O)ncnc3s2)ccc1Oc1ccccc1` [Comparative Reference Example 12b, 2-(3-Cyano-4-phenoxyphenyl)-7-hydroxythiazolo[5,4-d]pyrimidine], in [1], the AUClast came to 1157 ± 261 ng·h/mL, the Cmax turned out to be 239 ± 99 ng/mL and the Tmax worked out at 4.7 ± 3.1 h.

With `Cc1nc(-c2ccc(OCC(C)C)c(C#N)c2)sc1C(=O)O` [febuxostat, reference compound], in the series on plasma uric acid level, the “rate of change of the plasma uric acid level AUC (−1) to 6 with respect to the control group” value is listed as “no clear increase was observed”. In the series with serum uric acid level [6], the “maximum rate of decrease” value is reported as “about 35%”.
